How the values were obtained:
Caspase-7 = molecular target: T1, Caspase-7 (Homo sapiens, UniProt P55210); assay: Inhibition of human recombinant caspase-7 using Ac-DEVD-AMC as substrate assessed as accumulation of AMC preincubated for 10 mins followed by substrate addition measured after 10 mins by fluorescence assay
T1 sequence (P55210 whole entry): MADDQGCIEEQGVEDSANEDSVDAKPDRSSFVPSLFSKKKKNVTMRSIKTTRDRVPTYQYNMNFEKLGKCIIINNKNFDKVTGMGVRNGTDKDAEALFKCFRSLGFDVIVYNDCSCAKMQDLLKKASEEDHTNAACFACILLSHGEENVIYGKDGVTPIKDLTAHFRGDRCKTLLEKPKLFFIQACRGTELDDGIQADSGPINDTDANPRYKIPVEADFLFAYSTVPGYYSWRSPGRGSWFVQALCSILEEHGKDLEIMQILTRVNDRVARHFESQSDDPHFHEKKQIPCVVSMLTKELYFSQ

Caspase-3 = molecular target: T2, Caspase-3 (Homo sapiens, UniProt P42574); assay: Inhibition of human recombinant caspase-3 using Ac-DEVD-AMC as substrate assessed as accumulation of AMC preincubated for 10 mins followed by substrate addition measured after 10 mins by fluorescence assay
T2 sequence (P42574 whole entry): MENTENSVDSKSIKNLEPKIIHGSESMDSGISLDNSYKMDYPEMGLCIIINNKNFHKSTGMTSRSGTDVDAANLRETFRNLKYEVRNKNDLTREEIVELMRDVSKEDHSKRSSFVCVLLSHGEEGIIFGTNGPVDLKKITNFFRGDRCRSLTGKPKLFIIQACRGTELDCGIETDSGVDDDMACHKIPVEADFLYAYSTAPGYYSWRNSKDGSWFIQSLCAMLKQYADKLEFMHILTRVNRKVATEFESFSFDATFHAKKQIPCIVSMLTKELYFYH

SMILES | IC50 (Caspase-7) [µM] | IC50 (Caspase-3) [µM]
COC[C@@H]1C[C@@H](OC)CN1S(=O)(=O)c1ccc2c(c1)C(=O)C(=O)N2 | > 500 | > 500
COC[C@@H]1C[C@H](OC)CN1S(=O)(=O)c1ccc2c(c1)C(=O)C(=O)N2 | > 500 | > 500
COC[C@@H]1C[C@@H](OCCOCCOCCOCCO)CN1S(=O)(=O)c1ccc2c(c1)C(=O)C(=O)N2 | > 500 | > 500
COC[C@@H]1C[C@H](OCCOCCOCCOCCO)CN1S(=O)(=O)c1ccc2c(c1)C(=O)C(=O)N2 | > 500 | > 500
CCCCN1C(=O)C(=O)c2cc(S(=O)(=O)N3C[C@@H](OCCOCCOCCOCCO)C[C@H]3COC)ccc21 | > 500 | > 500
COC[C@@H]1C[C@@H](C(F)(F)F)CN1S(=O)(=O)c1ccc2c(c1)C(=O)C(=O)N2 | > 500 | > 500
COC[C@@H]1C[C@H](C(F)(F)F)CN1S(=O)(=O)c1ccc2c(c1)C(=O)C(=O)N2 | – | 101
COC[C@H]1CC[C@@H](COC)N1S(=O)(=O)c1ccc2c(c1)C(=O)C(=O)N2 | > 500 | > 500
COC[C@@H]1CC[C@@H](COC)N1S(=O)(=O)c1ccc2c(c1)C(=O)C(=O)N2 | > 500 | > 500

From ChEMBL document CHEMBL2390880, “Influence of 4- or 5-substituents on the pyrrolidine ring of 5-[1-(2-methoxymethylpyrrolidinyl)sulfonyl]isatin derivatives on their inhibitory activities towards caspases-3 and -7” (Eur J Med Chem, 2013)
